Structures are written as SMILES.

In the first assay the test system is Mycobacterium tuberculosis variant bovis. Nature of the assay: Antibacterial activity against Mycobacterium bovis (BCG); value ranges from 10-20. It is filed as functional.
For orientation: MIC means the smallest concentration in the dilution series that meets the test's criterion for growth inhibition. A high value points to weaker potency. In turn, `CC1=CC(C)(C)N(C)c2ncc(/C=C/C(C)=C\C=N\N=C(/N)S)cc21` displayed an MIC of under 20 µg/mL.

The test system is the same in another assay. The assay can be described thus: Antibacterial activity against Mycobacterium bovis (BCG); value ranges from 0.5-1. It is filed as functional.
The molecule `CC(C)CCOc1ccc(NC(=S)Nc2ccc(OCCC(C)C)cc2)cc1` [TIOCARLIDE] registered an MIC of under 1 µg/mL.

Another assay has the same test system. Nature of the assay: Antibacterial activity against Mycobacterium bovis (BCG); value ranges from 2-4. Type of assay: functional.
`COC(=O)c1ccc(C(=O)Oc2ccc3c(c2)OC(C)(C)C=C3C)cc1` came in with an MIC of under 4 µg/mL.

Another assay shares this test system. Nature of the assay: Antibacterial activity against Mycobacterium bovis (BCG); value ranges from 5-10. It is filed as functional.
`CCOC(=O)c1ccc(N/C(S)=N/c2ccc3c(c2)C(C)(C)CC(C)(C)O3)cc1` came in with an MIC of under 10 µg/mL.

The next assay has the same test system. Nature of the assay: Antibacterial activity against Mycobacterium bovis (BCG); value ranges from 20-40. Type of assay: functional.
With `CCOC(=O)c1ccc(N/C(S)=N/c2ccc3c(c2)C(C)(C)CC(C)(C)S3)cc1`, the MIC is under 40 µg/mL. Still for that read-out and setting: as for `CCOC(=O)c1ccc(N/C(S)=N/c2ccc3c(c2)C(C)=CC(C)(C)N3C)cc1`, the figure is under 40 µg/mL. On the same count and under the same terms, the result for `CCOC(=O)c1ccc(NC(=O)Nc2ccc3c(c2)C(C)(C)CC(C)(C)O3)cc1` reads under 40 µg/mL; that for `COc1ccc2c(c1/N=C(\S)Nc1ccc([N+](=O)[O-])cc1)C(C)(C)COC2(C)C`, under 40 µg/mL. Regarding `COc1ccc2c(c1NC(=S)NC(=O)c1ccc([N+](=O)[O-])cc1)C(C)(C)COC2(C)C`, the MIC is under 40 µg/mL. The same measure, in the same setting: as for `CC1(C)CC(C)(C)c2cccc(/N=C(\S)Nc3ccc([N+](=O)[O-])cc3)c2O1`, the figure is under 40 µg/mL; as for `CC1(C)CC(C)(C)c2cc(N/C(S)=N/c3ccc([N+](=O)[O-])cc3)ccc2O1`, under 40 µg/mL; as for `CCOC(=O)c1ccc(NC(=O)Nc2ccc3c(c2)C(C)(C)CC(C)(C)S3)cc1`, under 40 µg/mL. The same measure, in the same setting: as for `CCOC(=O)c1ccc(N/C(S)=N/c2cccc3c2OC(C)(C)CC3(C)C)cc1`, the figure is under 40 µg/mL; as for `CC1=CC(C)(C)N(C)c2ccc(N/C(S)=N/c3ccc([N+](=O)[O-])cc3)cc21`, under 40 µg/mL. The same measure, in the same setting: as for `CCOC(=O)c1ccc(NC(=O)Nc2ccc3c(c2)C(C)=CC(C)(C)N3C)cc1`, the figure is under 40 µg/mL; as for `CCOC(=O)c1ccc(NC(=O)Nc2cccc3c2OC(C)(C)CC3(C)C)cc1`, under 40 µg/mL.
